In experiment [1] the test system is Jurkat-Vec cells. Nature of the experiment: Cell growth assay, Jurkat-Vec. Conditions: read-out: IC50 cell growth inhibition. Type of experiment: cell-based. The procedure: FIG. 9 presents inhibition of cell growth by embelin in Jurkat-Vec and Jurkat-XIAP cells. The cell growth results are expressed as the percent of control and calculated from the percent of absorbance of treated wells versus that of vehicle control.
Human prostate cancer cell lines (PC-3, LNCap, CL-1, DU-145), and normal human fibroblast cell line WI-38 were obtained from the American Type Culture Collection (ATCC), were grown and maintained in Dulbecco's modified Eagle's medium (DMEM) containing 10% FBS (Invitrogen Corporation). Normal human prostate epithelial cells (PrEC) were obtained from Clonetics (Cambrex Inc., MD) and maintained in the special medium provided by the company. Jurkat T-cells stably transfected with either empty vector (Jurkat-Vec), or XIAP (Jurkat-XIAP) and were cultured in RPMI 1640 containing 10% fetal calf serum and 1 ug/ml puromycin. Cell cultures were maintained in a humidified incubator at 37° C. and 5% CO2.
Cell growth was determined by the MTT-based assay using Cell Proliferation Reagent WST-1 (Roche) according to the manufacturer's instruction. […] Absorbance was measured with a plate reader at […] with correction at […]. The results are expressed as the percent of absorbance of treated wells versus that of vehicle control.

In experiment [2] the test system is caspase-9 in normal PrEC cells. Nature of the experiment: Activation of caspase-9 assay, PrEC. The experiment is classed as cell-based, human. Conditions: compared to vehicle treated control cells. How it is done: FIGS. 7A and 7B show the activation of caspase-9 by embelin in PC-3 prostate cancer cells and its selectivity in normal prostate epithelial cells. 1×10^6 PC-3 or PrEC cells per well in 6-well culture plates were treated with embelin for 48 hours. An additional control was prepared by adding the pan-caspase inhibitor Z-VAD-FMK (2 uM final) 5 min before adding embelin, to inhibit caspase activation. The cells were collected and stained of active caspase-9 by CaspGLOW Red Active Caspase-9 Staining Kit, and analyzed by flow cytometry in PI channel.
1×10^6 PC-3 cells per well in 6-well culture plates, were treated with various concentrations of embelin, or the same amount of solvent DMSO as vehicle control, for up to 48 hr. An additional control was prepared by adding the pan-caspase inhibitor Z-VAD-FMK (1 uM final) 5 min before adding embelin, to inhibit caspase activation. The cells were collected for staining of active caspase-9 by CaspGLOW Red Active Caspase-9 Staining Kit (BioVision, Inc., Mountain View, Calif.) according to the manufacturer's instructions, with modification. […] The cells were resuspended in 0.3 ml Binding Buffer and analyzed by flow cytometry, using PI channel for active caspase-9 and FITC channel for apoptosis.

Experiment [3] concerns the target XIAP BIR3 protein of human XIAP (residues 241-356) (Homo sapiens, UniProt P98170). Conditions: read-out: IC50 (displacement of SM7F from XIAP BIR3); 10 nM SM7F, 0.060 μM XIAP BIR3; three independent experiments in triplicate.

Chain of XIAP BIR3 protein of human XIAP (residues 241-356) (P98170 241-356): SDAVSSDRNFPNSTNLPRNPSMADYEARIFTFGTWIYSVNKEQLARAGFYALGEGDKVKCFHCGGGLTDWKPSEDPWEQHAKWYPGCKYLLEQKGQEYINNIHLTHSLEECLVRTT

For the compound `CCCCCCCCCCCC1=C(O)C(=O)C=C(O)C1=O` [embelin], the IC50 (commonly the concentration at which inhibition is half-maximal) came out at 20 µM in experiment [1] and 4.1 ± 1.1 µM in experiment [3]. Moreover, the “activation of caspase-9 in normal PrEC” value is “no significant effect” in experiment [2] and “minimal effects” in experiment [2] (listed as Embelin).

The record behind these values is US7910621B2, “Small molecule antagonists of XIAP family proteins” (The Regents of the University of Michigan, priority 2004, dated 2011).
